Reference: publication PMC10504751, “Chalcone/1,3,4-Oxadiazole/Benzimidazole hybrids as novel anti-proliferative agents inducing apoptosis and inhibiting EGFR & BRAFV^600E” (BMC Chemistry, 2023)

What was measured:
NCI-H460 = assay: NCI one-dose SRB anti-proliferative screen; type: cell-based; settings: Homo sapiens; NCI-H460, Non-Small Cell Lung Cancer; NCI one dose; read-out: Cell growth inhibition %
Experimental: (§1) The twenty-four synthesized compounds were submitted to the National Cancer Institute (NCI), USA. Eighteen hybrids 7a-h, 7k-r, 7u, and 7v were selected by NCI for one-dose assessment of their anti-proliferative activities at 10 µM dose by Sulforhodamine B colorimetric assay. The assessment was performed in 60 cell lines derived from nine tumor subpanels, comprising lung, leukemia, melanoma, colon, renal, CNS, prostate, breast, and ovarian cancer cell lines.
(§2) The methodology of the NCI anti-proliferative screening has been described in details elsewhere (http://www.dtp.nci.nih.gov).

A549/ATCC = assay: NCI one-dose SRB anti-proliferative screen; type: cell-based; settings: Homo sapiens; A549/ATCC, Non-Small Cell Lung Cancer; NCI one dose; read-out: Cell growth inhibition %
Experimental: as §1, §2

NCI/ADR-RES = assay: NCI one-dose SRB anti-proliferative screen; type: cell-based; settings: Homo sapiens; NCI/ADR-RES, Ovarian Cancer; NCI one dose; read-out: Cell growth inhibition %
Experimental: as §1, §2

COLO 205 = assay: NCI one-dose SRB anti-proliferative screen; type: cell-based; settings: Homo sapiens; COLO 205, Colon cancer; NCI one dose; read-out: Cell growth inhibition %
Experimental: as §1, §2

UACC-257 = assay: NCI one-dose SRB anti-proliferative screen; type: cell-based; settings: Homo sapiens; UACC-257, Melanoma; NCI one dose; read-out: Cell growth inhibition %
Experimental: as §1, §2

HT29 = assay: NCI one-dose SRB anti-proliferative screen; type: cell-based; settings: Homo sapiens, HT-29; HT29, Colon cancer; NCI one dose; read-out: Cell growth inhibition %
Experimental: as §1, §2

SNB-75 = assay: NCI one-dose SRB anti-proliferative screen; type: cell-based; settings: Homo sapiens; SNB-75, CNS Cancer; NCI one dose; read-out: Cell growth inhibition %
Experimental: as §1, §2

SN12C = assay: NCI one-dose SRB anti-proliferative screen; type: cell-based; settings: Homo sapiens, SN 12C, Renal cancer, NCI one dose, read-out: Cell growth inhibition %
Experimental: as §1, §2

LOX IMVI = assay: NCI one-dose SRB anti-proliferative screen; type: cell-based; settings: Homo sapiens; for inhibition at 10 µM: Melanoma, NCI one dose, read-out: Cell growth inhibition %
Experimental: as §1, §2

UACC-62 = assay: NCI one-dose SRB anti-proliferative screen; type: cell-based; settings: Homo sapiens; UACC-62, Melanoma; NCI one dose; read-out: Cell growth inhibition %
Experimental: as §1, §2

MALME-3M = assay: NCI one-dose SRB anti-proliferative screen; type: cell-based; settings: Homo sapiens; MALME-3M, Melanoma; NCI one dose; read-out: Cell growth inhibition %
Experimental: as §1, §2

DU-145 = assay: NCI one-dose SRB anti-proliferative screen; type: cell-based; settings: Homo sapiens; DU-145, Prostate Cancer; NCI one dose; read-out: Cell growth inhibition %
Experimental: as §1, §2

HCT-15 = assay: NCI one-dose SRB anti-proliferative screen; type: cell-based; settings: Homo sapiens; HCT-15, Colon cancer; NCI one dose; read-out: Cell growth inhibition %
Experimental: as §1, §2

MDA-MB-468 = assay: NCI one-dose SRB anti-proliferative screen; type: cell-based; settings: Homo sapiens; MDA-MB-468, Breast cancer; NCI one dose; read-out: Cell growth inhibition %
Experimental: as §1, §2

SF-539 = assay: NCI one-dose SRB anti-proliferative screen; type: cell-based; settings: Homo sapiens; SF-539, CNS Cancer; NCI one dose; read-out: Cell growth inhibition %
Experimental: as §1, §2

SW-620 = assay: NCI one-dose SRB anti-proliferative screen; type: cell-based; settings: Homo sapiens; SW-620, Colon cancer; NCI one dose; read-out: Cell growth inhibition %
Experimental: as §1, §2

ACHN = assay: NCI one-dose SRB anti-proliferative screen; type: cell-based; settings: Homo sapiens; ACHN, Renal cancer; NCI one dose; read-out: Cell growth inhibition %
Experimental: as §1, §2

HL-60(TB) = assay: NCI one-dose SRB anti-proliferative screen; type: cell-based; settings: Homo sapiens; HL-60(TB), Leukemia; NCI one dose; read-out: Cell growth inhibition %
Experimental: as §1, §2

HS 578T = assay: NCI one-dose SRB anti-proliferative screen; type: cell-based; settings: Homo sapiens; HS 578T, Breast cancer; NCI one dose; read-out: Cell growth inhibition %
Experimental: as §1, §2

SF-268 = assay: NCI one-dose SRB anti-proliferative screen; type: cell-based; settings: Homo sapiens; SF-268, CNS Cancer; NCI one dose; read-out: Cell growth inhibition %
Experimental: as §1, §2

OVCAR-5 = assay: NCI one-dose SRB anti-proliferative screen; type: cell-based; settings: Homo sapiens; OVCAR-5, Ovarian Cancer; NCI one dose; read-out: Cell growth inhibition %
Experimental: as §1, §2

CCRF-CEM = assay: NCI one-dose SRB anti-proliferative screen; type: cell-based; settings: Homo sapiens; CCRF-CEM, Leukemia; NCI one dose; read-out: Cell growth inhibition %
Experimental: as §1, §2

KM12 = assay: NCI one-dose SRB anti-proliferative screen; type: cell-based; settings: Homo sapiens; KM12, Colon cancer; NCI one dose; read-out: Cell growth inhibition %
Experimental: as §1, §2

SK-MEL-28 = assay: NCI one-dose SRB anti-proliferative screen; type: cell-based; settings: Homo sapiens; SK-MEL-28, Melanoma; NCI one dose; read-out: Cell growth inhibition %
Experimental: as §1, §2

RPMI-8226 = assay: NCI one-dose SRB anti-proliferative screen; type: cell-based; settings: Homo sapiens; RPMI-8226, Leukemia; NCI one dose; read-out: Cell growth inhibition %
Experimental: as §1, §2

OVCAR-4 = assay: NCI one-dose SRB anti-proliferative screen; type: cell-based; settings: Homo sapiens; OVCAR-4, Ovarian Cancer; NCI one dose; read-out: Cell growth inhibition %
Experimental: as §1, §2

PC-3 = assay: NCI one-dose SRB anti-proliferative screen; type: cell-based; settings: Homo sapiens; PC-3, Prostate Cancer; NCI one dose; read-out: Cell growth inhibition %
Experimental: as §1, §2

OVCAR-3 = assay: NCI one-dose SRB anti-proliferative screen; type: cell-based; settings: Homo sapiens; OVCAR-3, Ovarian Cancer; NCI one dose; read-out: Cell growth inhibition %
Experimental: as §1, §2

HOP-92 = assay: NCI one-dose SRB anti-proliferative screen; type: cell-based; settings: Homo sapiens; HOP-92, Non-Small Cell Lung Cancer; NCI one dose; read-out: Cell growth inhibition %
Experimental: as §1, §2

SK-MEL-2 = assay: NCI one-dose SRB anti-proliferative screen; type: cell-based; settings: Homo sapiens; SK-MEL-2, Melanoma; NCI one dose; read-out: Cell growth inhibition %
Experimental: as §1, §2

Structure (SMILES): O=C(CSc1nnc(-c2ccc3[nH]c(-c4ccccc4)nc3c2)o1)Nc1ccc(C(=O)/C=C/c2ccc(Cl)cc2)cc1 [Compound 7b, 2-{5-[2-Phenyl-1 H-benzo[d]imidazol-5-yl]-1,3,4-oxadiazol-2-ylthio}-N-{4-[(E)-3-(4-chlorophenyl)acryloyl]phenyl}acetamide]
- melting point: 263 to 264 °C
- inhibition at 10 µM (NCI-H460): 0%
- inhibition at 10 µM (A549/ATCC): 0%
- inhibition at 10 µM (NCI/ADR-RES): 0%
- inhibition at 10 µM (COLO 205): 0%
- inhibition at 10 µM (UACC-257): 0%
- inhibition at 10 µM (HT29): 0%
- inhibition at 10 µM (SNB-75): 0%
- inhibition at 10 µM (SN12C): 9.8%
- inhibition at 10 µM (LOX IMVI): 12.9%
- inhibition at 10 µM (UACC-62): 11.6%
- inhibition at 10 µM (MALME-3M): 0%
- inhibition at 10 µM (DU-145): 0%
- inhibition at 10 µM (HCT-15): 0%
- inhibition at 10 µM (MDA-MB-468): 0%
- inhibition at 10 µM (SF-539): 4.06%
- inhibition at 10 µM (SW-620): 0%
- inhibition at 10 µM (ACHN): 0%
- inhibition at 10 µM (HL-60(TB)): 0%
- inhibition at 10 µM (HS 578T): 0%
- inhibition at 10 µM (SF-268): 0%
- inhibition at 10 µM (OVCAR-5): 0%
- inhibition at 10 µM (CCRF-CEM): 0%
- inhibition at 10 µM (KM12): 0%
- inhibition at 10 µM (SK-MEL-28): 0%
- inhibition at 10 µM (RPMI-8226): 12.2%
- inhibition at 10 µM (OVCAR-4): 0%
- inhibition at 10 µM (PC-3): 0.53%
- inhibition at 10 µM (OVCAR-3): 0%
- inhibition at 10 µM (HOP-92): 0%
- inhibition at 10 µM (SK-MEL-2): 0%

Structure (SMILES): COc1cc(/C=C/C(=O)c2ccc(NC(=O)CSc3nnc(-c4ccc5[nH]c(-c6ccccc6)nc5c4)o3)cc2)cc(OC)c1OC [Compound 7e, 2-{5-[2-Phenyl-1 H-benzo[d]imidazol-5-yl]-1,3,4-oxadiazol-2-ylthio}-N-{4-[(E)-3-(3,4,5-trimethoxyphenyl)acryloyl]phenyl}acetamide]
- melting point: 143 to 144 °C
- inhibition at 10 µM (NCI-H460): 7.53%
- inhibition at 10 µM (A549/ATCC): 0%
- inhibition at 10 µM (NCI/ADR-RES): 0%
- inhibition at 10 µM (COLO 205): 0%
- inhibition at 10 µM (UACC-257): 12.4%
- inhibition at 10 µM (HT29): 0%
- inhibition at 10 µM (SNB-75): 18.9%
- inhibition at 10 µM (SN12C): 9.21%
- activity at 10 µM (LOX IMVI; LOX IMVI (Melanoma), 10 µM one dose, read-out: Growth Percent): 56%
- inhibition at 10 µM (LOX IMVI): 44%
- inhibition at 10 µM (UACC-62): 17%
- inhibition at 10 µM (MALME-3M): 0%
- inhibition at 10 µM (DU-145): 9.02%
- inhibition at 10 µM (HCT-15): 12.4%
- inhibition at 10 µM (MDA-MB-468): 5.09%
- inhibition at 10 µM (SF-539): 17.5%
- inhibition at 10 µM (SW-620): 1.21%
- inhibition at 10 µM (ACHN): 0%
- inhibition at 10 µM (HL-60(TB)): 31%
- inhibition at 10 µM (HS 578T): 14.5%
- inhibition at 10 µM (SF-268): 2.34%
- inhibition at 10 µM (OVCAR-5): 0%
- inhibition at 10 µM (CCRF-CEM): 62.5%
- inhibition at 10 µM (KM12): 10%
- inhibition at 10 µM (SK-MEL-28): 6.64%
- inhibition at 10 µM (RPMI-8226): 69.3%
- inhibition at 10 µM (OVCAR-4): 0.46%
- inhibition at 10 µM (PC-3): 1.05%
- inhibition at 10 µM (OVCAR-3): 27.9%
- inhibition at 10 µM (HOP-92): 0%
- inhibition at 10 µM (SK-MEL-2): 0%

Structure (SMILES): COc1ccc(/C=C/C(=O)c2ccc(NC(=O)CSc3nnc(-c4ccc5[nH]c(-c6ccccc6)nc5c4)o3)cc2)cc1OC [Compound 7d, 2-{5-[2-Phenyl-1 H-benzo[d]imidazol-5-yl]-1,3,4-oxadiazol-2-ylthio}-N-{4-[(E)-3-(3,4-dimethoxyphenyl)acryloyl]phenyl}acetamide]
- melting point: 156 to 158 °C
- inhibition at 10 µM (NCI-H460): 0%
- inhibition at 10 µM (A549/ATCC): 0%
- inhibition at 10 µM (NCI/ADR-RES): 0%
- inhibition at 10 µM (COLO 205): 0%
- inhibition at 10 µM (UACC-257): 0%
- inhibition at 10 µM (HT29): 0%
- inhibition at 10 µM (SNB-75): 0%
- inhibition at 10 µM (SN12C): 0%
- inhibition at 10 µM (LOX IMVI): 13.5%
- inhibition at 10 µM (UACC-62): 5.31%
- inhibition at 10 µM (MALME-3M): 2.37%
- inhibition at 10 µM (DU-145): 0%
- inhibition at 10 µM (HCT-15): 0%
- inhibition at 10 µM (MDA-MB-468): 0%
- inhibition at 10 µM (SF-539): 0.34%
- inhibition at 10 µM (SW-620): 0%
- inhibition at 10 µM (ACHN): 0%
- inhibition at 10 µM (HL-60(TB)): 0%
- inhibition at 10 µM (HS 578T): 0%
- inhibition at 10 µM (SF-268): 0%
- inhibition at 10 µM (OVCAR-5): 0%
- inhibition at 10 µM (CCRF-CEM): 9.62%
- inhibition at 10 µM (KM12): 0%
- inhibition at 10 µM (SK-MEL-28): 0%
- inhibition at 10 µM (RPMI-8226): 14.7%
- inhibition at 10 µM (OVCAR-4): 0%
- inhibition at 10 µM (PC-3): 0%
- inhibition at 10 µM (OVCAR-3): 2.49%
- inhibition at 10 µM (HOP-92): 0%
- inhibition at 10 µM (SK-MEL-2): 0%
